{"source": "patent US6939561B2", "about": "“Methods and compositions for polyene antibiotics with reduced toxicity” (Wisconsin Alumni Research Foundation, priority 2001, dated 2005)", "key": {"Cryptococcus neoformans": {"test_system": "Cryptococcus neoformans", "assay": "Minimal inhibitory concentration (MIC) of AmB, microwell dilution", "assay_type": "cell-based", "conditions": "35° C., 24 hr", "procedure": "(§1) AmB in PEO-b-PHSA micelles was dissolved in isotonic sodium chloride solution giving an AmB level of 200 μg/ml. AmB was dissolved in DMSO and diluted further with the isotonic sodium chloride solution to give the same concentration. The level of DMSO in the final solution was <1% v/v. Samples of PEO-b-PHSA micelles in sodium chloride solution were also used as controls. Solutions of 20 μl from these samples were diluted with the culture medium (RPMI 1640) (80 μl) in the first microwell. The next 11 microwells had serial two-fold diluted solutions. To each microwell, 100 μl of the inoculum containing 5×10^3 CFU/ml of fungal pathogen (Candida albicans, Aspergillus fumigatus or Cryptococcus neoformans) in culture medium was added, giving a total volume of 200 μl per well. Microwell containers were incubated at 35° C. for 24 hr. Organism and medium controls were performed simultaneously to check the growth of organisms and sterility of culture medium, respectively. […] All tests were repeated three times."}, "Candida albicans": {"test_system": "Candida albicans", "assay": "Minimal inhibitory concentration (MIC) of AmB, microwell dilution", "assay_type": "cell-based", "conditions": "35° C., 24 hr", "procedure": "as §1"}, "Aspergillus fumigatus": {"test_system": "Aspergillus fumigatus", "assay": "Minimal inhibitory concentration (MIC) of AmB, microwell dilution", "assay_type": "cell-based", "conditions": "35° C., 24 hr", "procedure": "as §1"}, "human red blood cells": {"test_system": "human red blood cells", "assay": "Hemolytic activity of AmB toward human red blood cells", "assay_type": "cell-based", "conditions": "human RBCs, 37° C., 30 min", "procedure": "Human blood was collected and centrifuged (2000 rpm). The supernatant and buffy coat were pipetted off and the red blood cells (RBCs) were diluted with an isotonic phosphate buffer, pH 7.4. The proper dilution factor was estimated from the UV/VIS absorbance of hemoglobin at 576 nm in the supernatant after RBCs were lysed by 20 μg/ml of AmB. A properly diluted sample of RBCs gives an absorbance of 0.4-0.5. Solutions of diluted RBCs (2.5 ml) with varied levels of AmB in different samples were incubated at 37° C. for 30 min. Samples were then placed in ice to stop hemolysis. The unlysed RBCs were removed by centrifugation at 14,000 rpm (about 7000×g) for 20 sec. The supernatant was collected and analyzed for hemoglobin by UV/VIS spectroscopy at 576 nm. The percent of hemolyzed RBCs was determined using this equation: % hemolysis=100(Abs−Abso)/(Abs100−Abso), where Abs, Abso and Abs100 are the absorbance for the sample, control with no AmB and control in the presence of 20 μg/ml AmB, respectively."}, "[1]": {"assay": "UV/VIS spectroscopy, I/IV ratio (self-aggregation state of AmB)", "assay_type": "physicochemical", "conditions": "intensity at 348 nm to 409 nm, 4 μg/ml AmB, PBS pH 7.4", "procedure": "Freeze-dried samples of AmB in PEO-b-PHSA micelles with 11 and 70% stearate substitution were dissolved in PBS, pH=7.4, at 4 μg/ml of AmB. DMSO was used to solubilize AmB in PBS, pH=7.4, at a similar concentration. The level of DMSO in the final sample was <1% (v/v). The UV/VIS spectra of AmB in different samples were recorded from 300 nm to 450 nm."}}, "data": [{"compound": "C[C@@H]1[C@H](O)[C@@H](C)/C=C/C=C/C=C/C=C/C=C/C=C/C=C/[C@H](O[C@@H]2O[C@H](C)[C@@H](O)[C@H](N)[C@@H]2O)C[C@@H]2O[C@](O)(C[C@@H](O)C[C@@H](O)[C@H](O)CC[C@@H](O)C[C@@H](O)CC(=O)O[C@H]1C)C[C@H](O)[C@H]2C(=O)O", "note": "[AmB, Amphotericin B]", "values": [{"measurement": "MIC, AmB level inhibiting growth of C. neoformans", "setting": "Cryptococcus neoformans", "value": 0.3, "unit": "µg/mL"}, {"measurement": "MIC, AmB level inhibiting growth of C. albicans", "setting": "Candida albicans", "value": 0.3, "unit": "µg/mL"}, {"measurement": "MIC, AmB level inhibiting growth of A. fumigatus", "setting": "Aspergillus fumigatus", "value": 0.45, "unit": "µg/mL"}, {"measurement": "AmB level causing 100% hemolysis", "setting": "human red blood cells", "value": "about 1 μg/ml"}, {"measurement": "I/IV ratio", "setting": "[1]", "value": "about 1.2"}]}]}
